Measurements reported in patent publication US10858347B2, “Multicyclic compounds and uses thereof” (Karyopharm Therapeutics Inc., priority 2015, dated 2020).
Read-outs that look alike come from different tables or passages of the source.

Experiments:
MS751 cells = assay: MTT cell proliferation assay, MS751 cells; assay type: cell-based; conditions: MS751 cells (human cervix squamous cell carcinoma, lymph node metastasis); approximately 64-72 hours incubation
Method: (§1) The MTT cell proliferation assay was used to study the cytotoxic properties of the compounds. The assay was performed according to the method described by Roche Molecular Biochemicals, with minor modifications. The assay is based on the cleavage of the tetrazolium salt, MTT, in the presence of an electron-coupling reagent. The water-insoluble formazan salt produced must be solubilized in an additional step. Cells grown in a 96-well tissue culture plate were incubated with the MTT solution for approximately 4 hours. After this incubation period, a water-insoluble formazan dye formed. After solubilization, the formazan dye was quantitated using a scanning multi-well spectrophotometer (ELISA reader). […] The cells were seeded at 5,000-10,000 cells in each well of 96-well plate in 100 μL of fresh culture medium and were allowed to attach overnight. The stock solutions of the compounds were diluted in 100 μL cell culture medium to obtain eight concentrations of each test compound, ranging from 1 nM to 30 μM. […] All optical densities were measured at 490 nm using a Vmax Kinetic Microplate Reader (Molecular Devices). In most cases, the assay was performed in duplicate and the results were presented as a mean percent inhibition to the negative control±SE. The following formula was used to calculate the percent of inhibition: Inhibition (%)=(1−(ODo/OD))×100.
(§2) The compounds were tested against MS751, Z138 and 3T3 cells. The MS751 cell line is derived from a metastasis to lymph node of human cervix from a patient diagnosed with squameous cell carcinoma of the cervix. The Z138 cell line is a mature B-cell acute lymphoblastic leukemia cell line derived from a patient with chronic lumphocytic leukemia. 3T3 cells are standard fibroblast cells; they were originally isolated from Swiss mouse embryo tissue.

Z138 cells = assay: MTT cell proliferation assay, Z138 cells; assay type: cell-based, human; conditions: Z138 cells (mature B-cell acute lymphoblastic leukemia cell line), approximately 64-72 hours incubation
Method: as §1, §2

3T3 cells = assay: MTT cell proliferation assay, 3T3 cells; assay type: cell-based; conditions: 3T3 cells (standard fibroblast cells, Swiss mouse embryo), approximately 64-72 hours incubation
Method: as §1, §2

Compound | IC50 (MS751 cells) | IC50 (Z138 cells; Homo sapiens, Z-138) | IC50 (3T3 cells; NIH3T3) | IC50 (Z138 cells; read-out: Z-138 MTT (IC50; μM)) | IC50 (3T3 cells)
N#C/N=C(/NCc1ccc(N)nc1)NCc1cc2cc(-c3ccc(C(=O)N4CCC(F)(F)CC4)cc3)cc(-c3ccc(F)cc3)c2o1 [Compound 119, (Z)-1-((6-aminopyridin-3-yl)methyl)-2-cyano-3-((5-(4-(4,4-difluoropiperidine-1-carbonyl)phenyl)-7-(4-fluorophenyl)benzofuran-2-yl)methyl)guanidine] | 0.1 to 5 µM | 0.1 to 5 µM | > 10 µM | – | –
O=C(NCc1cc2cc(-c3ccc(C(=O)N4CCC(F)(F)CC4)cc3)cc(-c3ccc(F)cc3)c2o1)N1Cc2ccncc2C1 [Compound 102, N-((5-(4-(4,4-difluoropiperidine-1-carbonyl)phenyl)-7-(4-fluorophenyl)benzofuran-2-yl)methyl)-1H-pyrrolo[3,4-c]pyridine-2(3H)-carboxamide] | < 0.1 µM | < 0.1 µM | 0.1 to 5 µM | – | –
N#C/N=C(\NCc1cc2cc(-c3ccc(C(=O)N4CCC(F)(F)CC4)cc3)cc(-c3ccc(F)cc3)c2o1)Nc1ccc(N)nc1 [Compound 118, (E)-1-(6-aminopyridin-3-yl)-2-cyano-3-((5-(4-(4,4-difluoropiperidine-1-carbonyl)phenyl)-7-(4-fluorophenyl)benzofuran-2-yl)methyl)guanidine] | > 10 µM | > 10 µM | > 10 µM | – | –
Nc1ccc(CNC(=O)NCc2ccc(-c3ccc(-c4ccc(C(=O)N5CCC(F)(F)CC5)cc4)cc3-c3ccc(F)cc3)o2)cn1 [Compound 125, 1-((6-aminopyridin-3-yl)methyl)-3-((5-(3-(4-fluorophenyl)-4′-(4,4-difluoropiperidine-1-carbonyl)biphenyl-4-yl)furan-2-yl)methyl)urea] | – | < 0.1 µM | > 10 µM | – | –
O=C(NCc1cc2cc(-c3ccc(C(=O)N4CCC(F)(F)CC4)cc3)cc(-c3ccc(F)cc3)c2s1)N1Cc2ccncc2C1 [Compound 111, N-((5-(4-(4,4-difluoropiperidine-1-carbonyl)phenyl)-7-(4-fluorophenyl)benzo[b]thiophen-2-yl)methyl)-1H-pyrrolo[3,4-c]pyridine-2(3H)-carboxamide] | – | < 0.1 µM | > 10 µM | – | –
1-((6-aminopyridin- 3-yl)methyl)-3-(2-((4- (4,4-difluoropiperidine- 1-carbonyl)-4″- fluoro-[1,1′:3′,1″- terphenyl]-4′- yl)oxy)ethyl)urea [Compound 124] | – | – | – | < 0.1 µM | > 10 µM
Nc1ccc(CNC(=O)NCc2cc3cc(-c4ccc(C(=O)N5CCC(F)(F)CC5)cc4)cc(C(F)(F)F)c3o2)cn1 [Compound 113, 1-((6-aminopyridin-3-yl)methyl)-3-((5-(4-(4,4-difluoropiperidine-1-carbonyl)phenyl)-7-(trifluoromethyl)benzofuran-2-yl)methyl)urea] | – | > 10 µM | > 10 µM | – | –
Nc1ccc(CNC(=O)NCC2Cc3cc(-c4ccc(C(=O)N5CCC(F)(F)CC5)cc4)cc(-c4ccc(F)cc4)c3O2)cn1 (centres unmarked) [Compound 123, 1-((6-aminopyridin-3-yl)methyl)-3-((5-(4-(4,4-difluoropiperidine-1-carbonyl)phenyl)-7-(4-fluorophenyl)-2,3-dihydrobenzofuran-2-yl)methyl)urea] | – | < 0.1 µM | 0.1 to 5 µM | – | –
O=C(NCc1cccnc1)NCc1cc2cc(-c3ccc(C(=O)N4CCC(F)(F)CC4)cc3)cc(-c3ccc(F)cc3)c2o1 [Compound 104, 1-((5-(4-(4,4-difluoropiperidine-1-carbonyl)phenyl)-7-(4-fluorophenyl)benzofuran-2-yl)methyl)-3-(pyridin-3-ylmethyl)urea] | – | < 0.1 µM | 0.1 to 5 µM | – | –
O=C(NCc1cc2cc(-c3ccc(C(=O)N4CCC(F)(F)CC4)cn3)cc(-c3ccc(F)cc3)c2o1)N1Cc2ccncc2C1 [Compound 110, N-((5-(5-(4,4-difluoropiperidine-1-carbonyl)pyridin-2-yl)-7-(4-fluorophenyl)benzofuran-2-yl)methyl)-1H-pyrrolo[3,4-c]pyridine-2(3H)-carboxamide] | – | < 0.1 µM | < 0.1 µM | – | –
